Converted amounts (≈) assume the structure as drawn.
What was measured:
[1] = test system: Mycobacterium tuberculosis; assay: Inhibitory activity against growth of Mycobacterium tuberculosis H37Rv Strain; type: functional
[2] = test system: Mycobacterium tuberculosis; assay: Percent inhibitory activity against Mycobacterium tuberculosis H37Rv Strain at 6.25 ug/mL; type: functional
[3] = Selective index is […]; type: functional
[4] = test system: Mycobacterium tuberculosis; assay: Lowest concentration of compound against Mtb H37Ra strain required to inhibit the growth completely; type: functional
[5] = test system: Mycobacterium tuberculosis; assay: Inhibitory activity against growth of Mycobacterium tuberculosis (Mtb) H37Ra Strain; type: functional
[6] = test system: Mycobacterium tuberculosis; assay: Inhibitory activity against growth of Mycobacterium tuberculosis (Mtb) H37Ra Strain; Activity showed partial growth inhibition representing an estimated 50% or more; type: functional
[7] = test system: Mycobacterium tuberculosis; assay: Percent inhibitory activity against Mycobacterium tuberculosis (Mtb) H37Rv Strain at 12.25 ug/mL; type: functional
[8] = test system: Mycobacterium tuberculosis; assay: Lowest concentration of compound against Mtb H37Ra strain required to inhibit the growth completely; activity range is 2-4; type: functional
[9] = test system: Mycobacterium tuberculosis; assay: Concentration effecting […] reduction in the viable cell counts of mouse bone marrow macrophage monolayers containing Mtb Erdman after 7 days compared to controls; type: functional, organism-based; conditions: 168 h

Compound	MIC90 [1]	inhibition at 6.25 µg/mL [2]	MIC [5]	further results
CCCCCCCCCCCCSc1ncnc2c1ncn2CC(=O)OCC	0.78 µg/mL (≈ 1.92 µM)	98%		SI [3]: > 12.8; MIC [4]: 8 µg/mL (≈ 19.7 µM)
CCCCCCCCCCSc1ncnc2c1ncn2CC(=O)OC(C)(C)C	3.13 µg/mL (≈ 7.7 µM)	99%	16 µg/mL (≈ 39.4 µM)	SI [3]: > 3.19
CCCCCCCCCCSc1ncnc2c1ncn2CC(=O)OCC	1.56 µg/mL (≈ 4.12 µM)	100%		SI [3]: > 40; MIC [6]: > 12.8 µg/mL
Cc1ccccc1Sc1[nH]c(Cl)nc2ncnc1-2	> 6.25 µg/mL	72%	> 12.8 µg/mL	
CCOC(=O)Cn1cnc2c(Sc3cccc(C)c3)ncnc21	> 6.25 µg/mL	0%		MIC [6]: > 12.8 µg/mL
CCOC(=O)Cn1cnc2c(SCc3cccc([N+](=O)[O-])c3C)nc(O)nc21	> 6.25 µg/mL	0%	16 µg/mL (≈ 39.7 µM)	
Oc1nc(SCc2ccc(Cl)cc2)c2[nH]cnc2n1	> 6.25 µg/mL	55%		MIC [6]: > 12.8 µg/mL
Oc1nc(SCc2ccccc2Cl)c2[nH]cnc2n1	> 6.25 µg/mL	62%	> 16 µg/mL	
Clc1nc(Sc2cccc3ccccc23)c2[nH]cnc2n1	> 6.25 µg/mL	56%	> 12.8 µg/mL	
Oc1nc(SCc2ccccc2)c2[nH]cnc2n1	> 6.25 µg/mL	94%	> 12.8 µg/mL	
CCOC(=O)Cn1cnc2c(SCc3ccccc3)nc(O)nc21	> 6.25 µg/mL	25%		MIC [4]: 4 µg/mL (≈ 11.6 µM)
c1ccc2cc(Sc3[nH]cnc4ncnc3-4)ccc2c1	> 12.5 µg/mL			inhibition at 12.25 µg/mL [7]: 69%; MIC [6]: > 12.8 µg/mL
CCCCCCCCCCSc1[nH]c(Cl)nc2ncnc1-2	> 6.25 µg/mL	86%	> 12.8 µg/mL	
CCOC(=O)Cn1cnc2c(Sc3ccc(C)cc3)ncnc21	> 6.25 µg/mL	99%	> 12.8 µg/mL	
CC[C@@H](CO)NCCN[C@@H](CC)CO [ETHAMBUTOL]				MIC [8]: 4 µg/mL (≈ 19.6 µM)
CCOC(=O)Cn1cnc2c(Sc3ccc4ccccc4c3)ncnc21	> 6.25 µg/mL	100%		MIC [6]: > 12.8 µg/mL
O=[N+]([O-])c1ccccc1CSc1nc(O)nc2nc[nH]c12	> 6.25 µg/mL	61%	> 16 µg/mL	

Compound	MIC90 [1]	inhibition at 6.25 µg/mL [2]	MIC [5]	further results
c1ccc2nc(Sc3[nH]cnc4ncnc3-4)ccc2c1	> 12.5 µg/mL		> 12.8 µg/mL	inhibition at 12.25 µg/mL [7]: 69%
Oc1nc(SCc2ccccc2F)c2[nH]cnc2n1	> 6.25 µg/mL	50%		MIC [4]: > 8 µg/mL
CCOC(=O)Cn1cnc2c(SCc3cc(Cl)ccc3F)nc(O)nc21	> 6.25 µg/mL	17%		MIC [4]: 4 µg/mL (≈ 10.1 µM)
Clc1nc(Sc2ncccn2)c2[nH]cnc2n1	> 6.25 µg/mL	53%	> 12.8 µg/mL	
Oc1nc(SCc2ccc(F)cc2)c2[nH]cnc2n1	> 6.25 µg/mL	52%		MIC [6]: > 12.8 µg/mL
CCCCCCCCCCSc1ncnc2c1ncn2CC(N)=O	> 6.25 µg/mL	0%	32 µg/mL (≈ 91.6 µM)	
Clc1ccc(Sc2[nH]cnc3ncnc2-3)cc1	> 12.5 µg/mL		> 12.8 µg/mL	inhibition at 12.25 µg/mL [7]: 78%
CCOC(=O)Cn1cnc2c(Sc3ccc(Cl)cc3)ncnc21	> 6.25 µg/mL	99%	32 µg/mL (≈ 91.7 µM)	
Oc1nc(SCc2ccc(F)cc2C(F)(F)F)c2[nH]cnc2n1		50%	> 16 µg/mL	
CCCCCCCCCCSc1ncnc2c1ncn2CC(=O)OCc1ccccc1	> 6.25 µg/mL	0%	> 12.8 µg/mL	
c1ccc(CSc2ncnc3[nH]cnc23)cc1	> 12.5 µg/mL		> 12.8 µg/mL	inhibition at 12.25 µg/mL [7]: 52%
Cc1cccc(Sc2[nH]cnc3ncnc2-3)c1	> 12.5 µg/mL		> 12.8 µg/mL	inhibition at 12.25 µg/mL [7]: 99%
CCCCCCCCCCCSc1[nH]cnc2ncnc1-2	3.13 µg/mL (≈ 10.2 µM)	98%	> 12.8 µg/mL	EC50 [9]: 2.54 µg/mL (≈ 8.29 µM)
Cc1ccc(Sc2[nH]cnc3ncnc2-3)cc1	> 12.5 µg/mL		> 12.8 µg/mL	inhibition at 12.25 µg/mL [7]: 65%
CCOC(=O)Cn1cnc2c(SCc3ccccc3F)nc(O)nc21	> 6.25 µg/mL	22%		MIC [4]: 4 µg/mL (≈ 11 µM)
COc1cccc(CSc2[nH]c(O)nc3ncnc2-3)c1	> 6.25 µg/mL	59%	> 16 µg/mL	
CCCCCCCCCCSc1ncnc2c1ncn2CC(=O)Oc1ccccc1	> 6.25 µg/mL	0%	> 12.8 µg/mL	

From ChEMBL document CHEMBL1149166, “Antimycobacterial agents. 1. Thio analogues of purine” (J Med Chem, 2004)
